Experimental data as given in patent US8044206B2, “Nitrogen—containing heterocyclic derivatives having 2,6-disubstituted styryl” (Astellas Pharma Inc., priority 2003, dated 2011).
Structures can show the parent of a compound that is named as a salt.

test system: sodium channel; assay: [14C] guanidine uptake induced by veratridine in rat cerebral cortex primary neurons (sodium channel inhibitory action); format: cell-based; details: [14C] guanidine uptake induced by 100 μM veratridine, specific uptake = portion inhibited by 1 mM mexiletine, read-out: Na Channel Inhibition IC50
Procedure: The [^14C] guanidine uptake experiment was performed by the method of Bonisch et al. (British Journal of Pharmacology 108, 436-442, 1993) with some modifications. The [^14C] guanidine was used as a sodium tracer, and the inhibitory activity on uptake of [^14C] guanidine induced by veratridine as a sodium channel activator into rat cerebral cortex primary neurons was measured.
Pregnant rats (Wistar, female, 19 days of gestation) were anesthetized with ether. The animals were bled to death by giving incision through the carotid artery. The fetuses were taken out of the pregnant rats and after ethanol sterilization, the cerebral cortex was removed from the fetuses. The cerebral cortex was digested with papain and dispersed in culture medium, followed by plating on a poly-L-lysine-coated 96-well white plate at a density of 2.5×10^5 cells/well. Incubation was performed in a CO2 incubator (37° C., 5% CO2) for 2 days.
After each well was washed once with an assay buffer (135 mM choline Cl, 5 mM KCl, 1 mM MgSO4, 5.5 mM glucose, 1 mg/mL BSA, 10 mM Hepes-Tris, pH 7.4), a fresh assay buffer was added to the well, followed by incubation at 25° C. for 10 minutes. Then, a reaction solution (a test compound, [^14C] guanidine and 100 μM, veratridine) was replaced for the buffer, followed by incubation at 25° C. for 15 minutes. The reaction was terminated by washing 3 times with a cold wash buffer (135 mM NaCl, 5 mM KCl, 1 mM MgSO4, 10 mM Hepes-Tris, pH 7.4). To each well, 17 μl of 0.1N NaOH was added. After agitation, 100 μl of scintillator was added to the well and further agitation was continued. The radioactivity was quantified by a liquid scintillation counter. In each experiment, the sodium channel-specific uptake of the whole uptake was designated as portion that was inhibited by 1 mM mexiletine. The action of the test compound on sodium channel is expressed as 50% inhibition concentration (IC50) based on the specific uptake.

**Q.** `Cc1cccc(C)c1/C=C/c1ccncc1` [Example 25-2] was tested. Which IC50 did it give?
**A.** 29 µM

**Q.** How did the IC50 turn out when `CCc1cccc(CC)c1/C=C/C1CCNCC1` [Example 40] was run?
**A.** 8.4 µM

**Q.** `CCCCN(CCCC)C(=O)c1cc(C)c(/C=C/C2CCNCC2)c(C)c1` [Example 51] was tested. Which IC50 did it give?
**A.** 15 µM

**Q.** With `COc1cc(C)c(/C=C/C2CCNCC2)c(C)c1` [Example 54] as the compound, how does the IC50 read?
**A.** 19 µM

**Q.** With `Cc1cc(Br)cc(C)c1/C=C\C1CCNCC1` [Example 56] as the compound, how does the IC50 read?
**A.** 6.7 µM

**Q.** Which IC50 does the source give for `Cc1cccc(C)c1/C=C/[C@H]1CCNC[C@@H]1C` [Example 68, 4-[(E)-2-(2,6-dimethylphenyl)vinyl]-3-methylpiperidine hydrochloride] here?
**A.** 8.7 µM

**Q.** Which IC50 does the source give for `Cc1cccc(C)c1/C=C/C1CCN(Cc2ccccc2)CC1` [Example 73, 1-benzyl-4-[(E)-2-(2,6-dimethylphenyl)vinyl]piperidine] here?
**A.** 1.9 µM

**Q.** Which IC50 does the source give for `COCCN1CCC(/C=C/c2c(C)cccc2C)CC1` [Example 75] here?
**A.** 3.5 µM

**Q.** `O=C(CN1CCOCC1)N1CCC(/C=C/c2c(Cl)cccc2Cl)CC1` [Example 98] was tested. Which IC50 did it give?
**A.** 12 µM

**Q.** How did the IC50 turn out when `Cc1cccc(C)c1/C=C/CC1CCN(C(=O)CN2CCOCC2)CC1` [Example 103] was run?
**A.** 5 µM

**Q.** How did the IC50 turn out when `Cc1cccc(C)c1C=CC1CCN(C(=O)C2COCCN2)CC1` (stereo not drawn) [Example 122] was run?
**A.** 9.4 µM

**Q.** Which IC50 does the source give for `Cc1cccc(C)c1/C=C/C1CCN(C(=O)CNC2CCOCC2)CC1` [Example 129, (2-{4-[(E)-2-(2,6-dimethylphenyl)vinyl]piperidin-1-yl}-2-oxoethyl)tetrahydro-2H-pyran-4-ylamine] here?
**A.** 4.2 µM

**Q.** `Cc1cccc(C)c1C=CC1CCN(C(=O)CNCC2CCCO2)CC1` (stereo not drawn) [Example 130] was tested. Which IC50 did it give?
**A.** 3.4 µM

**Q.** How did the IC50 turn out when `Cc1cccc(C)c1/C=C/C1CCN(C(=O)CN2CC=CC2)CC1` [Example 145] was run?
**A.** 6 µM

**Q.** How did the IC50 turn out when `Cc1cccc(C)c1C=CC1CCN(C(=O)CN2CC(C)CC(C)C2)CC1` (stereo not drawn) [Example 153, 1-(2-{4-(E)-2-(2,6-dimethylphenyl)vinyl]piperidin-1-yl}-2-oxoethyl)-3,5-dimethyl piperidine] was run?
**A.** 2.4 µM

**Q.** With `Cc1cccc(C)c1/C=C/C1CCN(C(=O)CN2CCC(Cc3ccccc3)CC2)CC1` [Example 165] as the compound, how does the IC50 read?
**A.** 2.3 µM

**Q.** With `Cc1cccc(C)c1/C=C/C1CCN(C(=O)CN2CCN(C3CCCCC3)CC2)CC1` [Example 176] as the compound, how does the IC50 read?
**A.** 2.5 µM

**Q.** How did the IC50 turn out when `Cc1cccc(C)c1/C=C/C1CCN(C(=O)CN2CCSCC2)CC1` [Example 185] was run?
**A.** 6.7 µM

**Q.** For `Cc1cccc(C)c1C=CC1CCN(C(=O)CN2CCCC3CCCCC32)CC1` (stereo not drawn) [Example 192], which IC50 is on record?
**A.** 1.1 µM

**Q.** Which IC50 does the source give for `Cc1cccc(C)c1/C=C/C1CCN(C(=O)CNCCN)CC1` [Example 198] here?
**A.** 8.5 µM

**Q.** Which IC50 does the source give for `Cc1cccc(C)c1C=CC1CCN(C(=O)CN(C)CC2CCCO2)CC1` (stereo not drawn) [Example 211] here?
**A.** 3 µM

**Q.** How did the IC50 turn out when `Cc1cccc(C)c1/C=C/C1CCN(C(=O)CN(C)CCN2CCOCC2)CC1` [Example 213] was run?
**A.** 3.7 µM

test system: mice with streptozotocin (STZ)-induced diabetic neuropathy; assay: Analgesic action in mice with streptozotocin (STZ)-induced diabetic neuropathy, tail pinch test; format: in vivo; details: male ICR mice, Day 15 after STZ, oral 30 mg/kg, 45 minutes prior to measurement, latency after minus before administration
Procedure: Representative compounds of Compound (I) of the present invention were assessed for the analgesic action in mice with streptozotocin (STZ)-induced diabetic neuropathy to confirm the effect on neuropathic pain. The assessment was performed by the method of Kamei et al. (Pharmacology Biochemistry & Behavior 39, 541-544, 1991) with some modifications.
Male ICR mice of 4 weeks old were intraperitoneally injected with 200 mg/kg weight of STZ to prepare mice with diabetic neuropathic pain. The analgesic action was assessed by the tail pinch test. […] On Day 14 following the STZ injection, a pretest was carried out to determine the response latency before the administration of a test compound. Only the animals showing not longer than 3 seconds of the response latency in the pretest were used for the test compound assessment on the following day (Day 15 after STZ injection).
In the test compound assessment, the response latency after the administration of a test compound was measured. The test compound was orally administered at a dose of 30 mg/kg, 45 minutes prior to the response latency measurement
The analgesic action of a test compound is expressed as prolongation of latency (in seconds) calculated by the formula: (response latency after administration of a test compound)−(response latency before administration of a test compound).

**Q.** `Cc1cc(C#N)cc(C)c1/C=C/C1CCNCC1` [Example 49, 3,5-dimethyl-4-[(E)-2-piperidin-4-ylvinyl]benzonitrile] was tested. Which “Anti-STZ-induced pain after oral administration: Latency prolongation” value (“Anti-STZ-induced pain” for short) did it give?
**A.** 2.2 s

**Q.** `Cc1cccc(C)c1/C=C/C1CCN(C(=O)c2nc(N)n[nH]2)CC1` [Example 87, 5-({4-[(E)-2-(2,6-dimethylphenyl)vinyl]piperidin-1-yl}carbonyl)-1H-1,2,4-triazol-3-amine] was tested. Which “Anti-STZ-induced pain” value did it give?
**A.** 1.6 s

**Q.** `Cc1cc(Oc2ccccc2)cc(C)c1/C=C/C1CCN(C(=O)CN2CCOCC2)CC1` [Example 99, 4-(2-{4-[(E)-2-(2,6-dimethyl-4-phenoxyphenyl)vinyl]piperidin-1-yl}-2-oxoethyl) morpholine] was tested. Which “Anti-STZ-induced pain” value did it give?
**A.** 1.7 s

**Q.** Which “Anti-STZ-induced pain” value does the source give for `Cc1cccc(C)c1/C=C/C1CCCN(C(=O)CN2CCOCC2)C1` (stereo not drawn) [Example 101] here?
**A.** 2.0 s

**Q.** With `Cc1cccc(C)c1/C=C/C1CCCCN1C(=O)CN1CCOCC1` (stereo not drawn) [Example 102, 4-(2-{2-[(E)-2-(2,6-dimethylphenyl)vinyl]piperidin-1-yl}-2-oxoethyl)morpholine] as the compound, how does the “Anti-STZ-induced pain” value read?
**A.** 2.1 s
